{"source": "patent US20140057842A1", "about": "“COMPOSITIONS AND METHODS FOR CELL HOMING AND ADIPOGENESIS” (The Trustees of Columbia University in the City of New York, priority 2010, published 2014)", "key": {"hADSCs [1]": {"test_system": "hADSCs", "assay": "PPARγ expression of hADSCs followed for 28 days", "format": "cell-based, human", "conditions": "ADM plus 2 μM Pyrintegrin, compared with ADM alone", "protocol": "(§1) Change in PPARγ expression of hADSCs were followed for 28 days. hADSCs were treated with: control medium; adipogenic differentiation medium (ADM); ADM plus 10 μM of Notch gamma Secretase Inhibitor (Inh1) (ADM+Inh1); ADM plus 10 μM of MAPK Inhibitor (Inh2) (ADM+Inh2); and ADM plus 10 μM of Inh1 and Inh2 (ADM+Inh1, 2).\nPPARγ expression was measured for 28 days in hADSCs treated with: control medium; adipogenic differentiation medium (ADM); and ADM plus 2 μM of Pyrintegrin (ADM+Pyrintegrin)."}, "hADSCs [2]": {"test_system": "hADSCs", "assay": "C/EBPα expression of hADSCs followed for 28 days", "format": "cell-based, human", "conditions": "ADM plus 2 μM Pyrintegrin, compared with ADM alone", "protocol": "as §1, with “C/EBPα” for “PPARγ”\nC/EBPα expression was measured for 28 days in hADSCs treated with: control medium; adipogenic differentiation medium (ADM); and ADM plus 2 μM of Pyrintegrin (ADM+Pyrintegrin)."}, "hADSCs [3]": {"test_system": "hADSCs", "assay": "Lipid staining / brightfield images of hADSCs four weeks post-treatment", "format": "cell-based, human", "conditions": "ADM plus Pyrintegrin, compared with ADM alone", "protocol": "Brightfield images were produced four weeks post-treatment of hADSCs with: (A) ADM; (B) ADM+Inh1; (C) ADM+Inh2; and (D) ADM+Inh1, 2 (see e.g., FIG. 6 A-D).\nLipid staining was performed four weeks post-treatment of hADSCs with: (A) ADM; and (B) ADM plus Pyrintegrin (ADM+Pyrintegrin)."}, "hADSCs [4]": {"test_system": "hADSCs", "assay": "Adiponectin content of hADSCs at two and four weeks post-treatment", "format": "cell-based, human", "conditions": "ADM plus 2 μM Pyrintegrin", "protocol": "(§2) At two and four weeks post-treatment, Adiponectin content was measure in hADSCs treated with: control medium; adipogenic differentiation medium (ADM); ADM plus 10 μM of Notch gamma Secretase Inhibitor (Inh1) (ADM+Inh1); ADM plus 10 μM of MAPK Inhibitor (Inh2) (ADM+Inh2), and ADM plus 10 μM of Inh1 and Inh2 (ADM+Inh1, 2).\nAt two and four weeks post-treatment, Adiponectin content was measured in hADSCs treated with: control medium; adipogenic differentiation medium (ADM); and ADM plus 2 μM of Pyrintegrin (ADM+Drug)."}, "hADSCs [5]": {"test_system": "hADSCs", "assay": "Leptin content of hADSCs at two and four weeks post-treatment", "format": "cell-based, human", "conditions": "ADM plus 2 μM Pyrintegrin", "protocol": "as §2, with “Leptin” for “Adiponectin”, “measured” for “measure”, “(ADM+Inh2);” for “(ADM+Inh2),”\nAt two and four weeks post-treatment, Leptin content was measured in hADSCs treated with: control medium; adipogenic differentiation medium (ADM); and ADM plus 2 μM of Pyrintegrin (ADM+Drug)."}, "hADSCs [6]": {"test_system": "hADSCs", "assay": "Glycerol content of hADSCs at two and four weeks post-treatment", "format": "cell-based, human", "conditions": "ADM plus 2 μM Pyrintegrin", "protocol": "At two and four weeks post-treatment, Glycerol content was measured in hADSCs treated with: control medium; adipogenic differentiation medium (ADM); and ADM plus 2 μM of Pyrintegrin (ADM+Drug)."}, "BMP pathway": {"test_system": "BMP pathway", "assay": "Western blot analysis of hADSCs 1-hour post-treatment, phosphorylation of Smad1/5/8", "format": "cell-based, human", "conditions": "2 μM with ADM or alone", "protocol": "(§3) Western blot analysis was performed 1-hour post-treatment in hADSCs treated with: control medium (Control); adipogenic differentiation medium (ADM); ADM plus 2 μM of Pyrintegrin (ADM+Drug); and Pyrintegrin alone (Drug)."}, "TGFβ/Activin pathway": {"test_system": "TGFβ/Activin pathway", "assay": "Western blot analysis of hADSCs 1-hour post-treatment, TGFβ/Activin pathway", "format": "cell-based, human", "conditions": "2 μM with ADM or alone", "protocol": "as §3"}, "hADSCs [7]": {"test_system": "hADSCs", "assay": "PPARγ and C/EBPα gene expression of hADSCs four days post-treatment with Pyrintegrin without ADM", "format": "cell-based, human", "conditions": "control medium plus 2 μM or 10 μM Pyrintegrin", "protocol": "PPARγ and C/EBPα gene expression was measured at four days post-treatment in hADSCs treated with: control medium (Control); control medium plus 2 μM of Pyrintegrin (Control+Drug 2 μM); control medium plus 10 μM of Pyrintegrin (Control+Drug 10 μM) and adipogenic medium (ADM)."}, "[8]": {"test_system": "adipocyte stem cells (ASCs)", "assay": "Adipogenesis of adipocyte stem cells treated with EGFR antagonist (marker expression, glycerol and leptin contents)", "format": "cell-based", "conditions": "50 ng/mL in adipogenic medium", "excerpt": "Together, the adipogenic differentiation capacity of ASCs was restored to a similar level to without HSC co-culture."}}}
{"compound": "O=S(=O)(NCC1CC1)c1ccc(Nc2nccc(N3CCCc4cc(O)ccc43)n2)cc1", "note": "[Pyrintegrin, N-(Cyclopropylmethyl)-4-(4-(6-hydroxy-3,4-dihydroquinolin-1-(2H)-yl)pyrimidin-2-ylamino)benzenesulfonamide]", "values": [{"measurement": "PPARγ expression in hADSCs", "setting": "hADSCs [1]", "result": "more potent in inducing PPARγ expression"}, {"measurement": "C/EBPα expression in hADSCs", "setting": "hADSCs [2]", "result": "more potent in inducing C/EBPα expression"}, {"measurement": "lipid accumulation in hADSCs", "setting": "hADSCs [3]", "result": "more potent in inducing lipid accumulation"}, {"measurement": "secretion of Adiponectin cytokine by hADSCs", "setting": "hADSCs [4]", "result": "enhanced the secretion of Adiponectin cytokine"}, {"measurement": "secretion of Leptin cytokine by hADSCs", "setting": "hADSCs [5]", "result": "enhanced the secretion of Leptin cytokine"}, {"measurement": "secretion of Glycerol by hADSCs", "setting": "hADSCs [6]", "result": "enhanced the secretion of Glycerol"}, {"measurement": "phosphorylation of Smad1/5/8 (BMP pathway)", "setting": "BMP pathway", "result": "prevents the phosphorylation of Smad1/5/8"}, {"measurement": "TGFβ/Activin pathway inhibition", "setting": "TGFβ/Activin pathway", "result": "does not target the TGFβ/Activin pathway"}, {"measurement": "adipogenic differentiation of hADSCs (PPARγ and C/EBPα gene expression)", "setting": "hADSCs [7]", "result": "can induce hADSCs towards an adipogenic differentiation pathway"}]}
{"compound": "EGF: EGF added at 50 ng/mL to the adipogenic medium (NSDSECPLSHDGYCLHDGVCMYIEALDKYACNCVVGYIGERCQYRDLKWWELR; UniProt P01133 971-1023, looked up)", "values": [{"measurement": "adipogenesis of ASCs on addition of EGF to the adipogenic medium", "setting": "[8]", "result": "further inhibited adipogenesis"}]}
